Several values for one entry are separate records, joined by “and”; a condition that tells them apart may be missing. Equal values may be shown once.
What was measured:
HBV DNA replication = experiment: Effects on HBV DNA replication in 2.2.15 cells in culture (intracellular HBV DNA and HBV virion DNA); assay type: cell-based, hepatitis B virus; conditions: ddC 25 μM
[1] = tested on: central and peripheral nervous system; conditions: in vivo; cited from earlier work
hematopoietic cells = conditions: cited from earlier work
[2] = 24 hrs following the 9th day of treatment

## Nc1ccn([C@H]2CC[C@@H](CO)O2)c(=O)n1 [ddC, 2',3'-dideoxycytidine, reference compound]
HBV DNA replication; [2]
  Intracellular HBV DNA, Mono.: 1.1 pg/μg cell DNA and 1.2 pg/μg cell DNA and 0.8 pg/μg cell DNA and 1.0 pg/μg cell DNA
  Intracellular HBV DNA, RI (Replicating Intermediate): 1 pg/μg cell DNA
HBV DNA replication; Day 0, before first dose
  HBV Virion DNA, Day 0: 65 pg/ml culture medium and 70 pg/ml culture medium and 78 pg/ml culture medium and 60 pg/ml culture medium
HBV DNA replication; Day 3
  HBV Virion DNA, Day 3: 41 pg/ml culture medium and 33 pg/ml culture medium and 31 pg/ml culture medium and 40 pg/ml culture medium
HBV DNA replication; Day 6
  HBV Virion DNA, Day 6: 15 pg/ml culture medium and 13 pg/ml culture medium and 10 pg/ml culture medium and 12 pg/ml culture medium
[1]
  toxicity on the central and peripheral nervous system: high toxicity on the central and peripheral nervous system
Hematopoietic cells
  toxicity on hematopoietic cells: toxicity on hematopoietic cells
